Assay results reported in patent US6706663B2, “Herbicidal 3-heterocyclic substituted benzisothiazole and benzisoxazole compounds” (Wyeth, priority 2000, dated 2004).

What was measured:
[1] = tested on: MOOVA (Monochoria vaginalis); assay: Flooded paddy, preemergence weed control; type: in vivo, Presl.; settings: rated 3-4 weeks after treatment, 0-9 rating scale
Outline: (§1)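 Plants were established from seed or propagating organs in flooded silt loam, with the water surface held 1.5 to 3 cm above the soil for the entire experiment. Injury was assessed visually against a control and given a 0-9 score.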

[2] = tested on: ORYSAT (Rice, Tebonnet); assay: Postemergence herbicidal evaluation; type: in vivo, Oryza sativa, (L.) Tebonnet
Outline: (§2)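 Visual 0–9 injury scores versus control plants, covering stand, vigour, malformation, size, chlorosis and general appearance, taken four to five weeks post-spray and averaged over replicate tests. Plants were sprayed at roughly two weeks old and held on greenhouse benches.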

[3] = tested on: ABUTH (Abutilon theophrasti); assay: Postemergence herbicidal evaluation; type: in vivo, Medic.
Outline: as §2

[4] = tested on: GLXMAW (Soybean, Williams); assay: Preemergence herbicidal evaluation; type: in vivo, Glycine max, (L.) Merr. cv Williams; settings: preemergence, rated 4-5 weeks after treatment
[5] = tested on: GLXMAW (Soybean, Williams); assay: Postemergence herbicidal evaluation; type: in vivo, Glycine max, (L.) Merr. cv Williams
Outline: as §2

[6] = tested on: ZEAMX (Corn, Field); assay: Preemergence herbicidal evaluation; type: in vivo, Zea mays, L.; settings: preemergence, rated 4-5 weeks after treatment
[7] = tested on: ORYSAT (Rice, Tebonnet); assay: Flooded paddy, post-transplant rice tolerance; type: in vivo, Oryza sativa, (L.) Tebonnet; settings: flooded paddy, post-transplant rice, rated 3-4 weeks after treatment, 0-9 rating scale
Outline: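 Two ten-day-old seedlings were transplanted into silt loam, flooded and held at 1.5 to 3 cm water above the soil before herbicide treatment. Pots stayed in the greenhouse at that water level. Injury was scored visually on a 0-9 scale versus untreated control.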

[8] = tested on: ABUTH (Abutilon theophrasti); assay: Preemergence herbicidal evaluation; type: in vivo, Medic.; settings: preemergence, rated 4-5 weeks after treatment
[9] = tested on: IPOHE (Ipomoea hederacea); assay: Postemergence herbicidal evaluation; type: in vivo, (L.) Jacq.
Outline: as §2

[10] = tested on: AMBEL (Ambrosia artemisifolia); assay: Postemergence herbicidal evaluation; type: in vivo, L.
Outline: as §2

[11] = tested on: CASOB (Cassia obtusifolia); assay: Postemergence herbicidal evaluation; type: in vivo, L.
Outline: as §2

[12] = tested on: CHEAL (Chenopodium album); assay: Postemergence herbicidal evaluation; type: in vivo, L.
Outline: as §2

[13] = tested on: IPOHE (Ipomoea hederacea); assay: Preemergence herbicidal evaluation; type: in vivo, (L.) Jacq.; settings: preemergence, rated 4-5 weeks after treatment
[14] = tested on: ECHCG (Echinochloa crus-galli); assay: Preemergence herbicidal evaluation; type: in vivo, (L.) Beau; settings: preemergence, rated 4-5 weeks after treatment
Outline: (§3)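 Rating 0–9, visual, vs control; 4–5 wk after spraying seeded cups with compound in aq. acetone; conventional greenhouse care.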

[15] = tested on: SETVI (Setaria viridis); assay: Preemergence herbicidal evaluation; type: in vivo, (L.) Beau; settings: preemergence, rated 4-5 weeks after treatment
Outline: as §3

[16] = tested on: TRZAWR (Wheat, Winter, cv Riband); assay: Preemergence herbicidal evaluation; type: in vivo, Triticum aestivum; settings: preemergence, rated 4-5 weeks after treatment
Outline: as §3

[17] = tested on: CYPIR (Cyperus iria); assay: Flooded paddy, preemergence weed control; type: in vivo; settings: rated 3-4 weeks after treatment, 0-9 rating scale
Outline: as §1

[18] = tested on: AMBEL (Ambrosia artemisifolia); assay: Preemergence herbicidal evaluation; type: in vivo, L.; settings: preemergence, rated 4-5 weeks after treatment
Outline: as §3

[19] = tested on: CASOB (Cassia obtusifolia); assay: Preemergence herbicidal evaluation; type: in vivo, L.; settings: preemergence, rated 4-5 weeks after treatment
Outline: as §3

[20] = tested on: CHEAL (Chenopodium album); assay: Preemergence herbicidal evaluation; type: in vivo, L.; settings: preemergence, rated 4-5 weeks after treatment
Outline: as §3

CC1CCOC(c2nsc3ccc(-n4c(=O)cc(C(F)(F)F)n(C)c4=O)cc23)O1 (stereo not shown) [Compound 37, 1-methyl-3-[3-(4-methyl-m-dioxan-2-yl)-1,2-benzisothiazol-5-yl]-6-(trifluoromethyl)uracil]
0.0: herbicidal rating, CYPIR ([17]; rate 0.0080 kg/ha)
9.0: herbicidal rating, MOOVA ([1]; rate 0.0320 kg/ha) | Postemergence herbicidal rating, ABUTH ([3]; rate 0.0320 kg/ha) | Postemergence herbicidal rating, ABUTH ([3]; rate 0.0620 kg/ha) | GLXMAW preemergence herbicidal rating ([4]; Rate 0.0620 kg/ha) | GLXMAW preemergence herbicidal rating ([4]; Rate 0.1250 kg/ha) | GLXMAW preemergence herbicidal rating ([4]; Rate 0.2500 kg/ha) | Postemergence herbicidal rating, GLXMAW ([5]; rate 0.0320 kg/ha) | Postemergence herbicidal rating, GLXMAW ([5]; rate 0.0620 kg/ha) | ZEAMX preemergence herbicidal rating ([6]; Rate 0.0620 kg/ha) | ZEAMX preemergence herbicidal rating ([6]; Rate 0.1250 kg/ha) | ZEAMX preemergence herbicidal rating ([6]; Rate 0.2500 kg/ha) | herbicidal rating, ORYSAT (rice tolerance) ([7]; rate 0.1250 kg/ha) | ABUTH preemergence herbicidal rating ([8]; Rate 0.0620 kg/ha) | ABUTH preemergence herbicidal rating ([8]; Rate 0.1250 kg/ha) | ABUTH preemergence herbicidal rating ([8]; Rate 0.2500 kg/ha) | Postemergence herbicidal rating, IPOHE ([9]; rate 0.0320 kg/ha) | Postemergence herbicidal rating, IPOHE ([9]; rate 0.0620 kg/ha) | Postemergence herbicidal rating, AMBEL ([10]; rate 0.0320 kg/ha) | Postemergence herbicidal rating, AMBEL ([10]; rate 0.0620 kg/ha) | Postemergence herbicidal rating, CHEAL ([12]; rate 0.0620 kg/ha) | ECHCG preemergence herbicidal rating ([14]; Rate 0.0620 kg/ha) | ECHCG preemergence herbicidal rating ([14]; Rate 0.1250 kg/ha) | ECHCG preemergence herbicidal rating ([14]; Rate 0.2500 kg/ha) | SETVI preemergence herbicidal rating ([15]; Rate 0.0620 kg/ha) | SETVI preemergence herbicidal rating ([15]; Rate 0.1250 kg/ha) | SETVI preemergence herbicidal rating ([15]; Rate 0.2500 kg/ha) | TRZAWR preemergence herbicidal rating ([16]; Rate 0.0620 kg/ha) | TRZAWR preemergence herbicidal rating ([16]; Rate 0.1250 kg/ha) | TRZAWR preemergence herbicidal rating ([16]; Rate 0.2500 kg/ha) | herbicidal rating, CYPIR ([17]; rate 0.0320 kg/ha) | herbicidal rating, CYPIR ([17]; rate 0.1250 kg/ha) | AMBEL preemergence herbicidal rating ([18]; Rate 0.0620 kg/ha) | AMBEL preemergence herbicidal rating ([18]; Rate 0.1250 kg/ha) | AMBEL preemergence herbicidal rating ([18]; Rate 0.2500 kg/ha) | CASOB preemergence herbicidal rating ([19]; Rate 0.2500 kg/ha) | CHEAL preemergence herbicidal rating ([20]; Rate 0.0620 kg/ha) | CHEAL preemergence herbicidal rating ([20]; Rate 0.1250 kg/ha) | CHEAL preemergence herbicidal rating ([20]; Rate 0.2500 kg/ha)
7.0: IPOHE preemergence herbicidal rating ([13]; Rate 0.0620 kg/ha) | IPOHE preemergence herbicidal rating ([13]; Rate 0.2500 kg/ha) | CASOB preemergence herbicidal rating ([19]; Rate 0.0620 kg/ha)
5.0: Postemergence herbicidal rating, ORYSAT ([2]; rate 0.0620 kg/ha) | herbicidal rating, ORYSAT (rice tolerance) ([7]; rate 0.0080 kg/ha) | Postemergence herbicidal rating, CASOB ([11]; rate 0.0620 kg/ha) | Postemergence herbicidal rating, CHEAL ([12]; rate 0.0320 kg/ha)
3.0: herbicidal rating, MOOVA ([1]; rate 0.0080 kg/ha)
4.5: Postemergence herbicidal rating, ORYSAT ([2]; rate 0.0320 kg/ha)
8.0: IPOHE preemergence herbicidal rating ([13]; Rate 0.1250 kg/ha) | CASOB preemergence herbicidal rating ([19]; Rate 0.1250 kg/ha)
4.0: Postemergence herbicidal rating, CASOB ([11]; rate 0.0320 kg/ha)
8.5: herbicidal rating, ORYSAT (rice tolerance) ([7]; rate 0.0320 kg/ha)
